Data published in patent US20250090524A1, “BTK INHIBITORS” (BIOGEN MA INC., priority 2021, published 2025).

Legend:
[1] = target: T1, BTK (Homo sapiens, UniProt Q06187); assay: In Vitro BTK Kinase Assay: Btk-PolyGAT-LS Assay; format: biochemical; details: active BTK enzyme 0.25 nM, fluorescein-labeled polyGAT peptide 100 nM, 30 minutes incubation, TRF readout; read-out: In Vitro BTK Kinase Assay IC50 Score
T1 construct: purchased Upstate 14-552
Procedure: The purpose of the BTK in vitro assay is to determine compound potency against BTK through the measurement of IC50. Compound inhibition is measured after monitoring the amount of phosphorylation of a fluorescein-labeled polyGAT peptide (Invitrogen PV3611) in the presence of active BTK enzyme (Upstate 14-552), ATP, and inhibitor. The BTK kinase reaction was done in a black 96 well plate (costar 3694). For a typical assay, a 24 μL aliquot of a ATP/peptide master mix (final concentration; ATP […], polyGAT 100 nM) in kinase buffer (10 mM Tris-HCl pH 7.5, 10 mM MgCl2, 200 μM […], 5 mM DTT, 0.01% Triton X-100, and 0.2 mg/ml casein) is added to each well. Next, I uL of a 4-fold, 40× compound titration in 100% DMSO solvent is added, followed by adding […] of BTK enzyme mix in 1× kinase buffer (with a final concentration of 0.25 nM). The assay is incubated for 30 minutes before being stopped with […] of a 50 mM EDTA solution. Aliquots (5 uL) of the kinase reaction are transferred to a low volume white 384 well plate (Corning 3674), and […] of a 2× detection buffer (Invitrogen PV3574, with 4 nM Tb-PY20 antibody, Invitrogen PV3552) is added. The plate is covered and incubated for 45 minutes at room temperature. Time resolved fluorescence (TRF) on Molecular Devices M5 (332 nm excitation; 488 nm emission; 518 nm fluorescein emission) is measured. IC50 values are calculated using a four parameter fit with 100% enzyme activity determined from the DMSO control and 0% activity from the EDTA control.
“†” represents an IC50 of greater than 1 μM and equal to or less than 10 μM. “††” represents an IC50 of greater than 10 nM and equal to or less than 1 μM (10 nM<IC50≤1 μM). “†††” represents an IC50 of greater than 1 nM and equal to or less than 10 nM (1 nM<IC50≤10 nM). “††††” represents an IC50 of less than 1 nM.

[2] = tested on: CD69 expression on CD19+ B cells in human whole blood; assay: In Vitro Whole Blood CD69 Assay; format: cell-based; details: B-cell; human heparinized whole blood, anti-human IgD stimulation, overnight (18 to 22 hours), percentage of CD19+ B cells expressing CD69, flow cytometry; read-out: In Vitro HWB CD69 Assay IC50 Score
Procedure: Human heparinized venous blood from health donors was aliquoted into 96-well plate and “spiked” with serial dilutions of formula I compounds in DMSO or with DMSO without drug. The final concentration of DMSO in all wells was 0.1%. The plate was incubated at 37° C. for 30 min. Drug-containing samples were stimulated with […] mouse anti-human IgD-dextran (1A62) or 20 μg/mL polyclonal rabbit F(ab′)2 anti-human IgD.
Phosphate-buffered saline (PBS) was added to the negative control unstimulated sample and the plates were incubated overnight (18 to 22 hours) at 37° C. Cells were stained with fluorochrome-conjugated anti-CD19 and anti-CD69 antibodies. Lyse/fix solution was used to remove red blood cells by hypotonic lysis and to fix the remaining cells, which were then analyzed by flow cytometry. CD19+B cells were gated and analyzed for CD69 expression.
The percentage of B cells expressing CD69 was plotted versus the log 10 of the concentration of the drug and the best-fit curves (variable Hill slope) were generated to obtain the IC50 value.
“†” represents an IC50 of greater than 10 μM. “††” represents an IC50 of greater than 1 μM and equal to or less than 10 μM (1 μM<IC50≤10 μM). “†††” represents an IC50 of less than 1 μM.

T1 sequence (Q06187 whole entry): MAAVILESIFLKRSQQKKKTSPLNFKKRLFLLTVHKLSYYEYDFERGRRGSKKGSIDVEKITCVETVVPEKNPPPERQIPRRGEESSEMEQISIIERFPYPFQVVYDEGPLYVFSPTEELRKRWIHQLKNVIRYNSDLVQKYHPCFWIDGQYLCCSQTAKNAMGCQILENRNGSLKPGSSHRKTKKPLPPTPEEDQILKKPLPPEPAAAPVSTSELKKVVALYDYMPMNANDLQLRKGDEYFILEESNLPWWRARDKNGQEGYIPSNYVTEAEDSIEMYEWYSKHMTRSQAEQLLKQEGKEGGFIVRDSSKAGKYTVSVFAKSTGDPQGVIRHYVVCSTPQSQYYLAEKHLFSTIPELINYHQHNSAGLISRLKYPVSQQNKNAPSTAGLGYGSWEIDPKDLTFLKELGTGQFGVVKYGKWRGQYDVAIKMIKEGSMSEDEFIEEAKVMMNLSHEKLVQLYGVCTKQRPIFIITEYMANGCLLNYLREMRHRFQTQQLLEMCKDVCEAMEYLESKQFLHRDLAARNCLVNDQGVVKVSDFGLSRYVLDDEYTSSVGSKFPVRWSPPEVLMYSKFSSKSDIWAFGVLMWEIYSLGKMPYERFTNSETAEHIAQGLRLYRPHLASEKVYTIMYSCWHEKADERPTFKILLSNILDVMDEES

| IC50 [1] | IC50 [2] | SMILES |
| --- | --- | --- |
| 1000 to 10000 nM | 1000 to 10000 nM | C=CC(=O)N(C)[C@H]1CC[C@H](C(=O)c2nc(-c3cnn(C)c3)cn3nccc23)C1 (relative stereo) [Example 18, N-methyl-N-(3-(6-(1-methyl-1H-pyrazol-4-yl)pyrazolo[1,5-a]pyrazine-4-carbonyl)cyclopentyl)acrylamide] |
| < 1 nM | < 1000 nM | C=CC(=O)N1C[C@H]2C[C@@H](c3nc(-c4cnn(C)c4)cn4nccc34)C[C@H]2C1 (single isomer, unassigned) [Example 1] |
| 1 to 10 nM | 1000 to 10000 nM | C=CC(=O)N(C)C1CCC(C(=O)c2nc(-c3cnn(C)c3)cn3nccc23)C1 (single isomer, unassigned) [Example 16, N-methyl-N-(3-(6-(1-methyl-1H-pyrazol-4-yl)pyrazolo[1,5-a]pyrazine-4-carbonyl)cyclopentyl)acrylamide] |
| 10 to 1000 nM | 1000 to 10000 nM | C=CC(=O)N(C)[C@@H]1CCC[C@@H](c2nc(-c3cnn(C)c3)cn3nccc23)C1 (single isomer, unassigned) [Example 24, trans-N-methyl-N-(3-(6-(1-methyl-1H-pyrazol-4-yl)pyrazolo[1,5-a]pyrazin-4-yl)cyclohexyl)acrylamide] |
| 10 to 1000 nM | 1000 to 10000 nM | C=CC(=O)N(C)[C@H]1CCC[C@H](c2nc(-c3cnn(C)c3)cn3nccc23)C1 (single isomer, unassigned) [Example 25, trans-N-methyl-N-(3-(6-(1-methyl-1H-pyrazol-4-yl)pyrazolo[1,5-a]pyrazin-4-yl)cyclohexyl)acrylamide] |
| 1 to 10 nM | 1000 to 10000 nM | C=CC(=O)N(C)[C@H]1CCC[C@@H](c2nc(-c3cnn(C)c3)cn3nccc23)C1 (single isomer, unassigned) [Example 26, cis-N-methyl-N-(3-(6-(1-methyl-1H-pyrazol-4-yl)pyrazolo[1,5-a]pyrazin-4-yl)cyclohexyl)acrylamide] |
| 10 to 1000 nM | 1000 to 10000 nM | C=CC(=O)N(C)[C@@H]1CCC[C@H](c2nc(-c3cnn(C)c3)cn3nccc23)C1 (single isomer, unassigned) [Example 27, cis-N-methyl-N-(3-(6-(1-methyl-1H-pyrazol-4-yl)pyrazolo[1,5-a]pyrazin-4-yl)cyclohexyl)acrylamide] |
| 10 to 1000 nM | – | C=CC(=O)N1CCC[C@@H](Sc2nc(-c3cnn(C)c3)cn3nccc23)CC1 (single isomer, unassigned) [Example 30] |
| 1000 to 10000 nM | – | C=CC(=O)N1CCC[C@H](Sc2nc(-c3cnn(C)c3)cn3nccc23)CC1 (single isomer, unassigned) [Example 31] |
| 10 to 1000 nM | – | C=CC(=O)N(C)[C@H]1CC[C@@H](C(=O)c2nc(-c3cnn(C)c3)cn3nccc23)C1 (stereo in doubt) [Example 17, N-methyl-N-(3-(6-(1-methyl-1H-pyrazol-4-yl)pyrazolo[1,5-a]pyrazine-4-carbonyl)cyclopentyl)acrylamide] |
| 1000 to 10000 nM | < 1000 nM | C=CC(=O)N(C)[C@@H]1CC[C@H](C(=O)c2nc(-c3cnn(C)c3)cn3nccc23)C1 (stereo in doubt) [Example 19, N-methyl-N-(3-(6-(1-methyl-1H-pyrazol-4-yl)pyrazolo[1,5-a]pyrazine-4-carbonyl)cyclopentyl)acrylamide] |
| 10 to 1000 nM | – | C=CC(=O)N(C)C[C@H]1CC[C@H](c2nc(-c3cnn(C)c3)cn3nccc23)C1 (stereo in doubt) [Example 20, N-methyl-N-((3-(6-(1-methyl-1H-pyrazol-4-yl)pyrazolo[1,5-a]pyrazin-4-yl)cyclopentyl)methyl)acrylamide] |
| 1 to 10 nM | – | C=CC(=O)N(C)C[C@H]1CC[C@@H](c2nc(-c3cnn(C)c3)cn3nccc23)C1 (stereo in doubt) [Example 21, N-methyl-N-((3-(6-(1-methyl-1H-pyrazol-4-yl)pyrazolo[1,5-a]pyrazin-4-yl)cyclopentyl)methyl)acrylamide] |
| 10 to 1000 nM | – | C=CC(=O)N(C)C[C@@H]1CC[C@H](c2nc(-c3cnn(C)c3)cn3nccc23)C1 (stereo in doubt) [Example 22, N-methyl-N-((3-(6-(1-methyl-1H-pyrazol-4-yl)pyrazolo[1,5-a]pyrazin-4-yl)cyclopentyl)methyl)acrylamide] |
| 10 to 1000 nM | – | C=CC(=O)N(C)C[C@@H]1CC[C@@H](c2nc(-c3cnn(C)c3)cn3nccc23)C1 (stereo in doubt) [Example 23, N-methyl-N-((3-(6-(1-methyl-1H-pyrazol-4-yl)pyrazolo[1,5-a]pyrazin-4-yl)cyclopentyl)methyl)acrylamide] |
| 1 to 10 nM | 1000 to 10000 nM | C=CC(=O)N1C[C@H]2C[C@H](c3nc(-c4cnn(C)c4)cn4nccc34)C[C@H]2C1 [Example 2, 1-[(3aS,6aR)-5-[6-(1-methylpyrazol-4-yl)pyrazolo[1,5-a]pyrazin-4-yl]-3,3a,4,5,6,6a-hexahydro-1H-cyclopenta[c]pyrrol-2-yl]prop-2-en-1-one] |
| < 1 nM | < 1000 nM | C=CC(=O)N1CC2CC(c3cc(-c4cnn(C)c4)cn4nccc34)CC2C1 (stereo not shown) [Example 3, 1-[5-[6-(1-methylpyrazol-4-yl)pyrazolo[1,5-a]pyridin-4-yl]-3,3a,4,5,6,6a-hexahydro-1H-cyclopenta[c]pyrrol-2-yl]prop-2-en-1-one] |
| 1 to 10 nM | 1000 to 10000 nM | C=CC(=O)N1CCC(c2nc(-c3cnn(C)c3)cn3nccc23)CC1 [Example 4, 1-[4-[6-(1-methylpyrazol-4-yl)pyrazolo[1,5-a]pyrazin-4-yl]-1-piperidyl]prop-2-en-1-one] |
| 10 to 1000 nM | – | C=CC(=O)N1CCCC(c2nc(-c3cnn(C)c3)cn3nccc23)C1 (stereo not shown) [Example 5, 1-[3-[6-(1-methylpyrazol-4-yl)pyrazolo[1,5-a]pyrazin-4-yl]-1-piperidyl]prop-2-en-1-one] |
| 10 to 1000 nM | 1000 to 10000 nM | C=CC(=O)N1CCCC(c2nc(-c3cnn(C)c3)cn3nccc23)CC1 (stereo not shown) [Example 6, 1-[4-[6-(1-methylpyrazol-4-yl)pyrazolo[1,5-a]pyrazin-4-yl]azepan-1-yl]prop-2-en-1-one] |
| 1 to 10 nM | < 1000 nM | C=CC(=O)N1CCC(c2nc(-c3cnn(C)c3)cn3ncc(F)c23)CC1 [Example 7, 1-[4-[3-fluoro-6-(1-methylpyrazol-4-yl)pyrazolo[1,5-a]pyrazin-4-yl]-1-piperidyl]prop-2-en-1-one] |
| 1 to 10 nM | 1000 to 10000 nM | C=CC(=O)N1CCC(c2cc(-c3cnn(C)c3)cn3nccc23)CC1 [Example 8, 1-[4-[6-(1-methylpyrazol-4-yl)pyrazolo[1,5-a]pyridin-4-yl]-1-piperidyl]prop-2-en-1-one] |
| 1 to 10 nM | 1000 to 10000 nM | C=CC(=O)N1CCC(c2nc(-c3cnn(C)c3)cn3ncc(C)c23)CC1 [Example 9, 1-[4-[3-methyl-6-(1-methylpyrazol-4-yl)pyrazolo[1,5-a]pyrazin-4-yl]-1-piperidyl]prop-2-en-1-one] |
| 10 to 1000 nM | – | C=CC(=O)N1CC=C(c2nc(-c3cnn(C)c3)cn3ncc(C)c23)CC1 [Example 10, 1-[4-[3-methyl-6-(1-methylpyrazol-4-yl)pyrazolo[1,5-a]pyrazin-4-yl]-3,6-dihydro-2H-pyridin-1-yl]prop-2-en-1-one] |
| 10 to 1000 nM | – | C=CC(=O)N1CCC(c2nc(-c3cnn(C)c3)cn3nccc23)CC1C (stereo not shown) [Example 12, 1-[2-methyl-4-[6-(1-methylpyrazol-4-yl)pyrazolo[1,5-a]pyrazin-4-yl]-1-piperidyl]prop-2-en-1-one] |
